In test [1] the test system is T-cell. The experiment in a line: IL-2 secretion from T-cells co-stimulated with anti-CD3 and anti-CD28 antibody (Biological Example 2). Type of test: cell-based, human. The conditions noted are these: Homo sapiens, T-cell. In outline:
(§1)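 T-cells were stimulated with anti-CD3 antibody alone or with anti-CD28 antibody, in the presence or absence of Cbl-b inhibitor. IL-2 secretion or CD25 surface staining was measured, and values expressed as fold over the uninhibited baseline […].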

In test [2] the test system is T-cell. Description: CD25 cell surface staining on T-cells co-stimulated with anti-CD3 and anti-CD28 antibody (Biological Example 2). The class given is cell-based, human. Particulars: Homo sapiens, T-cell. In outline: as §1
Test [3] relates to T-cell. The experiment in a line: CD25 cell surface staining on T-cells stimulated with anti-CD3 antibody alone (Biological Example 2). The conditions noted are these: Homo sapiens, T-cell. Type of test: cell-based, human.
In test [4] the target is T1, Cbl-b (Homo sapiens, UniProt Q13191). Description: Cbl-b activity assay (Cbl-b inhibition assay), TR-FRET of Cbl-b interaction with UbcH5B-Ub. The class given is biochemical. The conditions noted are these: assay buffer with 100 mM NaCl, 60 nM Src kinase. In outline: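 UbcH5B (C85K) conjugated to N-terminally Bodipy-Fluorescein-labeled ubiquitin served as the fluorescent partner. After compound preincubation, Src kinase (60 nM) with 1 mM ATP and 5 mM MgCl2 (final) was added for 1.5 h, followed by a further 1 h incubation. Some values were obtained with 50 mM NaCl and 30 nM Src.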
A general note: TR-FRET usually uses a lanthanide donor and a delayed reading to cut background.

Test [5] relates to T-cell. The experiment in a line: IL-2 secretion from T-cells stimulated with anti-CD3 antibody alone (Biological Example 2). The class given is cell-based, human. Particulars: Homo sapiens, T-cell.
Test [6] concerns the target T1, Cbl-b. The experiment in a line: Cbl-b inhibition assay (Cbl-b activity assay, FRET, Biological Example 1; 100 mM NaCl, 60 nM Src kinase). The class given is biochemical. The gist of the method: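 Inhibition is read as loss of FRET signal. The signal arises when Src-phosphorylated, N-terminal biotinylated Avi-Cbl-b (captured by streptavidin-terbium) binds UbcH5B carrying covalently linked Bodipy-Fluorescein-tagged ubiquitin.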

[7] abbreviates: read-out: IL-2 secretion, Anti-CD3/Anti-CD28 stimulation, fold change over baseline.
Setting [8] is: read-out: CD25 staining, Anti-CD3/Anti-CD28 stimulation, fold change over baseline.
The mark [9] stands for this setting: read-out: CD25 staining, Anti-CD3 stimulation, fold change over baseline.
[10] abbreviates: read-out: IL-2 secretion, Anti-CD3 stimulation, fold change over baseline.
Where [11] appears, read: upper bound stated in text lists, read-out: IC50 values in the Cbl-b inhibition assay of Biological Example 1.
Setting [12] is: 0.3 μM Cbl-b inhibitor, fold change over baseline (anti-CD3/anti-CD28 stimulated T-cells without inhibitor), read-out: IL-2 secretion Anti-CD3/Anti-CD28 stimulation.
Setting [13] is: 1 μM Cbl-b inhibitor, fold change over baseline (anti-CD3/anti-CD28 stimulated T-cells without inhibitor), read-out: IL-2 secretion Anti-CD3/Anti-CD28 stimulation.
Where [14] appears, read: 0.3 μM Cbl-b inhibitor, fold change over baseline (anti-CD3/anti-CD28 stimulated T-cells without inhibitor), read-out: CD25 staining Anti-CD3/Anti-CD28 stimulation.
Where [15] appears, read: 1 μM Cbl-b inhibitor, fold change over baseline (anti-CD3/anti-CD28 stimulated T-cells without inhibitor), read-out: CD25 staining Anti-CD3/Anti-CD28 stimulation.
Where [16] appears, read: 1 μM Cbl-b inhibitor, fold change over baseline (anti-CD3/anti-CD28 stimulated T-cells without inhibitor), read-out: CD25 staining Anti-CD3 stimulation.
Setting [17] is: 1 μM Cbl-b inhibitor, fold change over baseline (anti-CD3/anti-CD28 stimulated T-cells without inhibitor), read-out: IL-2 secretion Anti-CD3 stimulation.

Bounds are passed on as bounds.

T1 sequence (Q13191 36-427): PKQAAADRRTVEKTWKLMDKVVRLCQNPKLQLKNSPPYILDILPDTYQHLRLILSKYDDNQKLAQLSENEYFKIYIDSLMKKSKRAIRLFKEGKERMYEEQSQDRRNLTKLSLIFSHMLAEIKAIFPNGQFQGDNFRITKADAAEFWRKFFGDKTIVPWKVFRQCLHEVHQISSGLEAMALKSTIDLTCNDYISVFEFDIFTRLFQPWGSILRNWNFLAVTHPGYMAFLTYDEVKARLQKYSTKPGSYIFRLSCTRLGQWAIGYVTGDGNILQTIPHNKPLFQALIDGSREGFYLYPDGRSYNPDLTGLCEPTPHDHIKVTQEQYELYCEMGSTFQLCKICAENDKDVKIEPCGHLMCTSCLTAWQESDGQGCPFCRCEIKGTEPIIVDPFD

With `Cn1cnnc1CC1(c2cccc(NC(=O)c3nc(C(F)(F)F)cs3)c2)COC1` [Compound 495, N-(3-{3-[(4-methyl-1,2,4-triazol-3-yl)methyl]oxetan-3-yl}phenyl)-4-(trifluoromethyl)-1,3-thiazole-2-carboxamide], the fold induction at 0.3 µM in test [1] (setting [7]) lay within 1.01 to 2.5; in test [2] (setting [8]), 1.01 to 1.3. The fold induction at 1 µM in test [1] (setting [7]) was 2.51 to 5; in test [2] (setting [8]), 1.01 to 1.3; in test [3] (setting [9]), 0.601 to 0.8; in test [5] (setting [10]), less than 0.05. Further, the IC50 is 0.301 to 1 µM in test [4] (Cbl-b activity IC50 (μM)) and not above 1000 nM in test [6] (IC50 values in the Cbl-b inhibition assay of Biological Example 1).

In the case of `Cn1cnnc1CC1(c2cccc(N3Cc4c(cc(CN5C6CCC5CC6)cc4C(F)(F)F)C3=O)c2)COC1` [Example 555, 6-((7-azabicyclo[2.2.1]heptan-7-yl)methyl)-2-(3-(3-((4-methyl-4H-1,2,4-triazol-3-yl)methyl)oxetan-3-yl)phenyl)-4-(trifluoromethyl)isoindolin-1-one], the figures for the fold induction at 0.3 µM in test [1] (setting [7]) and in test [2] (setting [8]) were more than 7.5 and 1.51 to 1.75, respectively. The fold induction at 1 µM was more than 7.5 in test [1] (setting [7]), 1.51 to 1.75 in test [2] (setting [8]), more than 1 in test [3] (setting [9]) and more than 0.201 in test [5] (setting [10]). Besides, the results for the IC50 in test [4] (read-out: Cbl-b activity IC50) and in test [6] (setting [11]) were less than 0.1 µM and not above 100 nM, respectively.

Turning to `Cn1cnnc1CC1(c2cccc(N3Cc4c(cc(CN5C6CCCC5CC6)cc4C(F)(F)F)C3=O)c2)COC1` [Example 556, 6-((8-azabicyclo[3.2.1]octan-8-yl)methyl)-2-(3-(3-((4-methyl-4H-1,2,4-triazol-3-yl)methyl)oxetan-3-yl)phenyl)-4-(trifluoromethyl)isoindolin-1-one], the fold induction at 0.3 µM was more than 7.5 in test [1] (setting [7]) and more than 1.76 in test [2] (setting [8]). The fold induction at 1 µM in test [1] (setting [7]) was more than 7.5; in test [2] (setting [8]), more than 1.76; in test [3] (setting [9]), more than 1; in test [5] (setting [10]), more than 0.201. In addition, the IC50 is less than 0.1 µM in test [4] (read-out: Cbl-b activity IC50) and not above 100 nM in test [6] (setting [11]).

For the compound `Cn1cnnc1CC1(c2cccc(N3Cc4c(cc(CN5[C@@H]6CC[C@H]5C[C@@H](F)C6)cc4C(F)(F)F)C3=O)c2)COC1` [Example 557, 6-(((1R,3r,5S)-3-fluoro-8-azabicyclo[3.2.1]octan-8-yl)methyl)-2-(3-(3-((4-methyl-4H-1,2,4-triazol-3-yl)methyl)oxetan-3-yl)phenyl)-4-(trifluoromethyl)isoindolin-1-one], the fold induction at 0.3 µM is 5 to 7.5 in test [1] (setting [7]) and more than 1.76 in test [2] (setting [8]). Moreover, the fold induction at 1 µM in test [1] (setting [7]) was more than 7.5; in test [2] (setting [8]) it was more than 1.76; in test [3] (setting [9]), more than 1; in test [5] (setting [10]), more than 0.201. The values for the IC50 in test [4] (read-out: Cbl-b activity IC50) and in test [6] (setting [11]) were less than 0.1 µM and not above 100 nM, respectively.

`Cn1cnnc1CC1(c2cccc(N3Cc4c(cc(C5=CN6CCC5CC6)cc4C(F)(F)F)C3=O)c2)COC1` [Example 559, 6-(l-azabicyclo[2.2.2]oct-2-en-3-yl)-2-(3-(3-((4-methyl-4H-1,2,4-triazol-3-yl)methyl)oxetan-3-yl)phenyl)-4-(trifluoromethyl)isoindolin-1-one]: the fold induction at 0.3 µM in test [1] (setting [12]) fell in the range of 1.01 to 2.5; in test [2] (setting [14]), 1.01 to 1.3. The fold induction at 1 µM in test [1] (setting [13]) is 2.51 to 5; in test [2] (setting [15]), 1.01 to 1.3; in test [3] (setting [16]), 0.601 to 0.8; in test [5] (setting [17]), less than 0.05. Moreover, the IC50 is 0.1 to 0.3 µM in test [4] (read-out: Cbl-b activity IC50) and not above 300 nM in test [6] (setting [11]).

`Cn1cnnc1CC1(c2cccc(N3Cc4c(cc(C5CN6CCC5CC6)cc4C(F)(F)F)C3=O)c2)COC1` (stereo not shown) [Example 560, 2-(3-(3-((4-methyl-4H-1,2,4-triazol-3-yl)methyl)oxetan-3-yl)phenyl)-6-(quinuclidin-3-yl)-4-(trifluoromethyl)isoindolin-1-one]: the values for the fold induction at 0.3 µM in test [1] (setting [12]) and in test [2] (setting [14]) were 2.51 to 5 and 1.01 to 1.3, respectively. For the same compound, the fold induction at 1 µM is 5 to 7.5 in test [1] (setting [13]), 1.01 to 1.3 in test [2] (setting [15]), 0.601 to 0.8 in test [3] (setting [16]) and less than 0.05 in test [5] (setting [17]). Besides, the figures for the IC50 in test [4] (read-out: Cbl-b activity IC50) and in test [6] (setting [11]) were less than 0.1 µM and not above 100 nM, respectively.

As to `Cn1cnnc1CC1(c2cccc(N3Cc4c(cc(N5CCOC5=O)cc4C(F)(F)F)C3=O)c2)COC1` [Example 561, 3-(2-(3-(3-((4-Methyl-4H-1,2,4-triazol-3-yl)methyl)oxetan-3-yl)phenyl)-3-oxo-7-(trifluoromethyl)isoindolin-5-yl)oxazolidin-2-one], the fold induction at 0.3 µM is 1.01 to 2.5 in test [1] (setting [12]) and 1.01 to 1.3 in test [2] (setting [14]). The fold induction at 1 µM in test [1] (setting [13]) is 2.51 to 5; in test [2] (setting [15]), 1.01 to 1.3; in test [3] (setting [16]), 0.601 to 0.8; in test [5] (setting [17]), less than 0.05. In addition, the IC50 in test [4] (read-out: Cbl-b activity IC50) was less than 0.1 µM; in test [6] (setting [11]), not above 100 nM.

As for `CN1C[C@H]2C[C@@H]1CN2c1cc2c(c(C(F)(F)F)c1)CN(c1cccc([C@@](C)(F)C(F)(F)c3nncn3C)c1)C2=O` [Example 562, 6-((1R,4R)-5-Methyl-2,5-diazabicyclo[2.2.1]heptan-2-yl)-2-(3-((R)-1,1,2-trifluoro-1-(4-methyl-4H-1,2,4-triazol-3-yl)propan-2-yl)phenyl)-4-(trifluoromethyl)-isoindolin-1-one], the fold induction at 0.3 µM lay within 5 to 7.5 in test [1] (setting [12]) and 1.51 to 1.75 in test [2] (setting [14]). Further, the fold induction at 1 µM is more than 7.5 in test [1] (setting [13]), 1.51 to 1.75 in test [2] (setting [15]), more than 1 in test [3] (setting [16]) and more than 0.201 in test [5] (setting [17]). Further, the IC50 in test [4] (read-out: Cbl-b activity IC50) is less than 0.1 µM; in test [6] (setting [11]), not above 100 nM.

As to `CN1C[C@@H]2C[C@H]1CN2c1cc2c(c(C(F)(F)F)c1)CN(c1cccc([C@@](C)(F)C(F)(F)c3nncn3C)c1)C2=O` [Example 563, 6-((1S,4S)-5-Methyl-2,5-diazabicyclo[2.2.1]heptan-2-yl)-2-(3-((R)-1,1,2-trifluoro-1-(4-methyl-4H-1,2,4-triazol-3-yl)propan-2-yl)phenyl)-4-(trifluoromethyl)-isoindolin-1-one], the fold induction at 0.3 µM in test [1] (setting [12]) lay in the range of 1.01 to 2.5; in test [2] (setting [14]), 1.01 to 1.3. In addition, the fold induction at 1 µM is 2.51 to 5 in test [1] (setting [13]), 1.31 to 1.5 in test [2] (setting [15]), 0.801 to 1 in test [3] (setting [16]) and 0.051 to 0.1 in test [5] (setting [17]). The IC50 is less than 0.1 µM in test [4] (read-out: Cbl-b activity IC50) and not above 100 nM in test [6] (setting [11]).

For the compound `CN1C2CCC1CN(c1cc3c(c(C(F)(F)F)c1)CN(c1cccc([C@@](C)(F)C(F)(F)c4nncn4C)c1)C3=O)C2` [Example 564, 6-(8-Methyl-3,8-diazabicyclo[3.2.1]octan-3-yl)-2-(3-((R)-1,1,2-trifluoro-1-(4-methyl-4H-1,2,4-triazol-3-yl)propan-2-yl)phenyl)-4-(trifluoromethyl)isoindolin-1-one], the fold induction at 0.3 µM in test [1] (setting [12]) was in the range of 1.01 to 2.5; in test [2] (setting [14]), 1.01 to 1.3. The fold induction at 1 µM in test [1] (setting [13]) was 2.51 to 5; in test [2] (setting [15]), 1.31 to 1.5; in test [3] (setting [16]) it was 0.801 to 1; in test [5] (setting [17]) it was 0.101 to 0.15. Moreover, the IC50 in test [4] (read-out: Cbl-b activity IC50) is less than 0.1 µM; in test [6] (setting [11]), not above 100 nM.

Take `CN1CC2CCC1CN2c1cc2c(c(C(F)(F)F)c1)CN(c1cccc([C@@](C)(F)C(F)(F)c3nncn3C)c1)C2=O` (stereo partly drawn) [Example 565, 6-(5-Methyl-2,5-diazabicyclo[2.2.2]octan-2-yl)-2-(3-((R)-1,1,2-trifluoro-1-(4-methyl-4H-1,2,4-triazol-3-yl)propan-2-yl)phenyl)-4-(trifluoromethyl)isoindolin-1-one]: the fold induction at 0.3 µM in test [1] (setting [12]) was 1.01 to 2.5; in test [2] (setting [14]) it was 1.31 to 1.5. Also, the fold induction at 1 µM in test [1] (setting [13]) was 2.51 to 5; in test [2] (setting [15]) it was 1.31 to 1.5; in test [3] (setting [16]), more than 1; in test [5] (setting [17]) it was 0.101 to 0.15. For the same compound, the concentration for half-maximal inhibition (IC50) in test [4] (read-out: Cbl-b activity IC50) is less than 0.1 µM; in test [6] (setting [11]), not above 100 nM.

As usually defined, the IC50 is the concentration at which inhibition is half-maximal.

Values taken from patent publication US20220324835A1 (Nurix Therapeutics, Inc., priority 2018, published 2022).
